Tests used:
[1] = molecular target: T1, human CYP11B2 (Homo sapiens, UniProt P19099); assay: G-402 cellular enzyme assay, human CYP11B2 (aldosterone release, HTRF); assay type: cell-based; conditions: G-402 cells, 1 μM Deoxycorticosterone
T1 construct: expressed in transfected cells
T1 sequence (P19099 25-503): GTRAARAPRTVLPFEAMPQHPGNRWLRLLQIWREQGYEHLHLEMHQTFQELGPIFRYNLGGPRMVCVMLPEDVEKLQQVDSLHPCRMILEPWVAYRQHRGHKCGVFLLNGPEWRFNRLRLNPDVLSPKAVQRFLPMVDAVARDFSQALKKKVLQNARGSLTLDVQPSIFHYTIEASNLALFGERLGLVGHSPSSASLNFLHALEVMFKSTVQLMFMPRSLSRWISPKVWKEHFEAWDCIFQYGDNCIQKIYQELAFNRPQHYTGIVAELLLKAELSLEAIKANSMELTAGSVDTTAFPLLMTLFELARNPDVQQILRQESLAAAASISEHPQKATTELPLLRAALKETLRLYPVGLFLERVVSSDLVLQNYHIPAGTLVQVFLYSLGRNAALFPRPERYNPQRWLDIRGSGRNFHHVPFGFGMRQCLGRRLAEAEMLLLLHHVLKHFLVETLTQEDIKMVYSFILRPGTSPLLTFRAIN
How it was run: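 Cellular format in stably transfected G-402 cells over 16 h. HTRF quantified aldosterone (CYP11B2, 1 μM deoxycorticosterone substrate) or cortisol (CYP11B1, 1 μM deoxycortisol substrate); EC50 obtained by fitting a 4-parameter sigmoid to dose–response data.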

[2] = molecular target: T2, human CYP11B1 (Homo sapiens, UniProt P15538); assay: G-402 cellular enzyme assay, human CYP11B1 (cortisol release, HTRF); assay type: cell-based; conditions: G-402 cells, 1 μM Deoxycortisol
T2 construct: expressed in transfected cells
T2 sequence (P15538 25-503): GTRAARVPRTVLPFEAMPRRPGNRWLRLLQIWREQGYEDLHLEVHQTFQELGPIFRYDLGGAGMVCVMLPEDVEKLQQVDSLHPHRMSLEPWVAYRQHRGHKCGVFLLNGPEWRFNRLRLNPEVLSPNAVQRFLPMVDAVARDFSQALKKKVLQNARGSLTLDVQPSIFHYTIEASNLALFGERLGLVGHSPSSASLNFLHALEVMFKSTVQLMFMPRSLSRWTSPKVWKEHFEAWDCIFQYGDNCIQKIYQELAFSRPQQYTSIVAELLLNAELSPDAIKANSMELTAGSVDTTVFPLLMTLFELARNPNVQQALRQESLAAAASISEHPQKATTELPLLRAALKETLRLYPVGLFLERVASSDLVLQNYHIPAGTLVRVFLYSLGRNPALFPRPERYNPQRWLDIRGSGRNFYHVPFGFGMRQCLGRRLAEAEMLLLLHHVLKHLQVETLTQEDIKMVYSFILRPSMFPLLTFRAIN
Excerpt: Herein we identified the use of the G-402 cell line as a host cell to ectopically express (transiently or stably) enzymes of the CYP11 family. Specifically we developed stable G-402 cells expressing ectopically human CYP11B1, human CYP11B2, human CYP11A1, cynmolgus CYP11B1 or cynomolgus CYP11B2 enzyme activity. Importantly the identified cell line G-402 expresses co-factors (adrenodoxin and adrenodoxin reductase) important for the activity of the CYP11 family and no relevant enzyme activity of the CYP11 family (in comparison to H295R cells) was detected in these cells. Therefore the G-402 cell line is uniquely suited as a host cell for the ectopic expression of enzymes from the CYP11 family.
G-402 cells can be obtained from ATCC(CRL-1440) and were originally derived from a renal leiomyoblastoma.
The expression plasmids contain the ORF for either human/cyno CYP11B1 or CYP11B2 under the control of a suitable promoter (CMV-promoter) and a suitable resistance marker (neomycin). Using standard techniques the expression plasmid is transfected into G-402 cells and these cells are then selected for expressing the given resistance markers. Individual cell-clones are then selected and assessed for displaying the desired enzymatic activity using 11-Deoxycorticosterone (Cyp11B2) or 11-Deoxycortisol (Cyp11B1) as a substrate.
G-402 cells expressing CYP11 constructs were established as described above and maintained in McCoy's 5a Medium Modified, ATCC Catalog No. 30-2007 containing 10% FCS and 400 μg/ml G418 (Geneticin) at 37° C. under an atmosphere of 5% CO2/95% air.
Cellular enzyme assays were performed in DMEM/F12 medium containing 2.5% charcoal treated FCS and appropriate concentration of substrate (0.3-10 uM 11-Deoxycorticosterone, 11-Deoxycortisol or Corticosterone). For assaying enzymatic activity, cells were plated onto 96 well plates and incubated for 16 h. An aliquot of the supernatant is then transferred and analyzed for the concentration of the expected product (Aldosterone for CYP11B2; Cortisol for CYP11B1). The concentrations of these steroids can be determined using HTRF assays from CisBio analyzing either Aldosterone or Cortisol.
Inhibition of the release of produced steroids can be used as a measure of the respective enzyme inhibition by test compounds added during the cellular enzyme assay. The dose dependent inhibition of enzymatic activity by a compound is calculated by means of plotting added inhibitor concentrations (x-axes) vs. measured steroid/product level (y-axes). The inhibition is then calculated by fitting the following 4-parameter sigmoidal function (Morgan-Mercer-Flodin (MMF) model) to the raw data points using the least squares method:
[formula] wherein, A is the maximum y value, B is the EC50 factor determined using XLFit, C is the minimum y value and D is the slope value.
EC50 values for compounds claimed herein were tested with the G402-based assay system described. Cyp11B2 enzyme activity was tested in presence of 1 μM Deoxycorticosterone and variable amounts of inhibitors; Cyp11B1 enzyme activity was tested in presence of 1 μM Deoxycortisol and variable amounts of inhibitors.

| SMILES | EC50 [1] [nM] | EC50 [2] [nM] |
| --- | --- | --- |
| CCC(=O)N[C@H]1CCCc2c1cncc2N1C(=O)c2ccc(Cl)cc2[C@H]1CC (single isomer, unassigned) [Example 352, N-[(S or R)-4-((R or S)-5-Chloro-3-ethyl-1-oxo-1,3-dihydro-isoindol-2-yl)-5,6,7,8-tetrahydro-isoquinolin-8-yl]-propionamide] | 96.5 | 39400 |
| CCC(=O)N[C@@H]1CCCc2c1cncc2N1C(=O)c2ccc(Cl)cc2[C@H]1CC (single isomer, unassigned) [Example 354, N-[(R or S)-4-((R or S)-5-Chloro-3-ethyl-1-oxo-1,3-dihydro-isoindol-2-yl)-5,6,7,8-tetrahydro-isoquinolin-8-yl]-propionamide] | 12.2 | 345 |
| CC[C@@H]1c2cc(Cl)ccc2C(=O)N1c1cncc2c1CCC[C@@H]2NC(C)=O (single isomer, unassigned) [Example 355, N-[(S or R)-4-((R or S)-5-Chloro-3-ethyl-1-oxo-1,3-dihydro-isoindol-2-yl)-5,6,7,8-tetrahydro-isoquinolin-8-yl]-acetamide] | 15.3 | 8170 |
| CC[C@H]1c2cc(Cl)ccc2C(=O)N1c1cncc2c1CCC[C@H]2NC(C)=O (single isomer, unassigned) [Example 357, N-[(R or S)-4-((S or R)-5-Chloro-3-ethyl-1-oxo-1,3-dihydro-isoindol-2-yl)-5,6,7,8-tetrahydro-isoquinolin-8-yl]-acetamide] | 98.2 | 3220 |
| CC[C@@H]1c2cc(Cl)ccc2C(=O)N1c1cncc2c1CCC[C@H]2NC(C)=O (single isomer, unassigned) [Example 358, N-[(R or S)-4-((R or S)-5-Chloro-3-ethyl-1-oxo-1,3-dihydro-isoindol-2-yl)-5,6,7,8-tetrahydro-isoquinolin-8-yl]-acetamide] | 5 | 433 |
| CCC(=O)N[C@@H]1CCCc2c1cncc2N1C(=O)c2ccc(Cl)cc2[C@@H]1C (single isomer, unassigned) [Example 359, N-[(R or S)-4-((S or R)-5-Chloro-3-methyl-1-oxo-1,3-dihydro-isoindol-2-yl)-5,6,7,8-tetrahydro-isoquinolin-8-yl]-propionamide] | 6 | 411 |
| CCC(=O)N[C@H]1CCCc2c1cncc2N1C(=O)c2ccc(Cl)cc2[C@H]1C (single isomer, unassigned) [Example 360, N-[(S or R)-4-((R or S)-5-Chloro-3-methyl-1-oxo-1,3-dihydro-isoindol-2-yl)-5,6,7,8-tetrahydro-isoquinolin-8-yl]-propionamide] | 853 | 16100 |
| CCC(=O)N[C@@H]1CCCc2c1cncc2N1C(=O)c2ccc(Cl)cc2[C@H]1C (single isomer, unassigned) [Example 361, N-[(R or S)-4-((R or S)-5-Chloro-3-methyl-1-oxo-1,3-dihydro-isoindol-2-yl)-5,6,7,8-tetrahydro-isoquinolin-8-yl]-propionamide] | 65.6 | 9410 |
| CC(=O)N[C@H]1CCCc2c1cncc2N1C(=O)c2ccc(Cl)cc2[C@H]1C (single isomer, unassigned) [Example 363, N-[(S or R)-4-((R or S)-5-Chloro-3-methyl-1-oxo-1,3-dihydro-isoindol-2-yl)-5,6,7,8-tetrahydro-isoquinolin-8-yl]-acetamide] | 171 | 2330 |
| CC[C@@H]1c2cc(Cl)ccc2C(=O)N1c1cncc2c1CC[C@@H]2NS(C)(=O)=O (single isomer, unassigned) [Example 367, N-[(S or R)-4-((R or S)-5-Chloro-3-ethyl-1-oxo-1,3-dihydro-isoindol-2-yl)-6,7-dihydro-5H-[2]pyrindin-7-yl]-methanesulfonamide] | 62.1 | 5240 |
| CC[C@H]1c2cc(Cl)ccc2C(=O)N1c1cncc2c1CC[C@H]2NS(C)(=O)=O (single isomer, unassigned) [Example 368, N-[(R or S)-4-((S or R)-5-Chloro-3-ethyl-1-oxo-1,3-dihydro-isoindol-2-yl)-6,7-dihydro-5H-[2]pyrindin-7-yl]-methanesulfonamide] | 12.1 | 723 |

The remaining compounds from weak to strong by EC50 [1], led by results:

| EC50 [1] [nM] | EC50 [2] [nM] | SMILES |
| --- | --- | --- |
| 2000 | 737 | CC[C@H]1c2cc(Cl)ccc2C(=O)N1c1cncc2c1CCC[C@@H]2NC(C)=O (single isomer, unassigned) [Example 356, N-[(S or R)-4-((S or R)-5-Chloro-3-ethyl-1-oxo-1,3-dihydro-isoindol-2-yl)-5,6,7,8-tetrahydro-isoquinolin-8-yl]-acctamide] |
| 396 | 16200 | CCC(=O)N[C@@H]1CCCc2c1cncc2N1C(=O)c2ccc(Cl)cc2[C@@H]1CC (single isomer, unassigned) [Example 353, N-[(R or S)-4-((S or R)-5-Chloro-3-ethyl-1-oxo-1,3-dihydro-isoindol-2-yl)-5,6,7,8-tetrahydro-isoquinolin-8-yl]-propionamide] |
| 337 | 15900 | CC(=O)N[C@H]1CCCc2c1cncc2N1C(=O)c2ccc(Cl)cc2[C@@H]1C (single isomer, unassigned) [Example 365, N-[(S or R)-4-((S or R)-5-Chloro-3-methyl-1-oxo-1,3-dihydro-isoindol-2-yl)-5,6,7,8-tetrahydro-isoquinolin-8-yl]-acetamide] |
| 130 | 5570 | CC(=O)N[C@@H]1CCCc2c1cncc2N1C(=O)c2ccc(Cl)cc2[C@H]1C (single isomer, unassigned) [Example 364, N-[(R or S)-4-((R or S)-5-Chloro-3-methyl-1-oxo-1,3-dihydro-isoindol-2-yl)-5,6,7,8-tetrahydro-isoquinolin-8-yl]-acetamide] |
| 53.2 | 6090 | CCC(=O)N[C@H]1CCCc2c1cncc2N1C(=O)c2ccc(Cl)cc2[C@@H]1C (single isomer, unassigned) [Example 362, N-[(S or R)-4-((S or R)-5-Chloro-3-methyl-1-oxo-1,3-dihydro-isoindol-2-yl)-5,6,7,8-tetrahydro-isoquinolin-8-yl]-propionamide] |
| 4.4 | 82 | CC(=O)N[C@@H]1CCCc2c1cncc2N1C(=O)c2ccc(Cl)cc2[C@@H]1C (single isomer, unassigned) [Example 366, N-[(R or S)-4-((S or R)-5-Chloro-3-methyl-1-oxo-1,3-dihydro-isoindol-2-yl)-5,6,7,8-tetrahydro-isoquinolin-8-yl]-acetamide] |
